How the values were obtained:
[1] = tested on: HeLa S3 cells undergoing apoptosis; assay: Fluorescent microscopy of binding to cultured HeLa cells undergoing apoptosis; format: cell-based; conditions: aged HeLa culture, fluorescence, FIG. 3
Protocol: HeLa S3 cells (ATCC CCL-2.2) were grown in Dulbecco's modified Eagle's medium (DMEM), supplemented with 2 mM of L-glutamine; 100 units/ml of penicillin; 100 μg/ml of streptomycin; 12.5 units/ml of nystatin and 10% of fetal calf serum (FCS). Cells were seeded at a density of 5×10^6 cells/plate, on a […] culture plates, in a volume of 10 ml, and were allowed to age by incubating the culture for 96 hours without exchange of the growth-medium. As a result, a marked percentage of the cells became apoptotic. Cells were harvested using a cell scraper, separated to single cells by passage through a syringe with a 18 G needle, and re-suspended at a density of 10^6 cells/ml in PBS buffer at pH=7.4. As was shown before NST 203 including a dansylamide group which enables the visualization of the fluorescence of a single cell.

colon carcinoma tumors [2] = assay: Uptake into treated colon carcinoma tumors compared with tumor volume; format: in vivo, Balb/c male mice
Protocol: Colon carcinoma model was established in the abdomen of Balb/c male mice, as described in Example No. 10. At day 12-14 when tumor size was 6-8 mm in diameter, mice were injected intravenously with doxorubicin. A total of 2 doses of doxorubicin were given, separated by 3 days interval (each dose was 20 mg/Kg).
Two days after the second doxorubicin injection, mice were injected i.v. with 10 μCi of ^3H-NST200 in a volume of 0.2 ml saline. Four hours following ^3H-NST200 injection, mice were sacrificed by pental overdosing. Tumors were collected in ependorff tubes, weighted and frozen in −20° C.
Tumor lysis was performed using SOLVABLE™ reagent (GNE9100, Packard Bioscience) in a ratio of 1 ml reagent per 150 mg of tumor tissue at 60° C. in 20 ml scintillation glass vials. Following 2-4 hours, 1 ml from each tissue extract was transferred to a glass scintillation vial. To reduce color quenching problems, samples were treated with 0.4 ml of 30% H2O2 in the presence of 0.066M EDTA. […] The vials were incubated for 1 hr at RT, and than analyzed in a β-counter (TRI-CARB 2100TR, liquid scintillation analyzer, Packard Bioscience). Values of percents of injected dose (% ID/g tissue) were calculated for each sample. […] The uptake values of NST200 after each dose were correlated with tumor volume, which were calculated by the formula (assuming spherical tumors) V=πD^3/6, where D is the average tumor diameter.

[3] = tested on: brain and spinal cord white matter in EAE; assay: Autoradiography imaging of experimental autoimmune encephalomyelitis (EAE); format: in vivo, C3H.SW/C57/bl female mice; conditions: FIG. 12
colon carcinoma tumors [4] = assay: Autoradiography of response to chemotherapy in a mouse model of colon carcinoma; format: in vivo, Balb/c male mice; conditions: 4 h after i.v. injection
Protocol: Colon carcinoma model was established in the abdomen of Balb/c male mice. At day 12-14 when tumor size was […] in diameter, the uptake of NST200 into tumors was measured following treatment of colon carcinoma tumors with i.v. injection of two doses of doxorubicin (20 mg/kg, 72 hours apart). Fourty-eight hours after the chemotherapy, both the control non-treated and the chemotherapy-treated animals were injected intravenously with and radio-labeled NST200 (80 μCi/animal) Four hours later, the animals were sacrificed. 10 μm frozen sections were prepared, air-dried and exposed to a tritium sensitive film. The film was exposed for a duration of 7 weeks, developed and analyzed by densitometny measurement. Measurement of ^3H-DDC densities in optical density/mm^2, […] was assessed by TINA software. Signals were translated according to a Microscale autoradiography standards and expressed in nCi/mg units.

[5] = tested on: colon carcinoma tumor vs other organs; assay: Biodistribution in colon carcinoma tumor bearing mice; format: in vivo, Balb/c male mice; conditions: doxorubicin treated mice, 4 h after injection, table of FIG. 7
Protocol: Colon carcinoma model was established in the abdomen of Balb/c male mice, as described in previous example, and ^3H-NST200 (10 μCi) was injected to animals treated with doxorubicin. Four hours later, the animals were sacrificed and various organs/tissues were collected and processed, to determine the accumulation of ^3H-NST200 within them. The uptake in each organ was expressed as % of the injected dose (ID), and the ratio between the uptake in the tumor and other organs was calculated, as shown in the table attached hereto as FIG. 7.

[6] = tested on: brain regions of apoptotic/necrotic cell death; assay: Autoradiography of apoptotic damage following middle cerebral artery occlusion in mice; format: in vivo, Balb/C mice
Protocol: p-MCA was induced through a subtemporal approach in Balb/C mice with an outcome of a pronounced ischemic damage. Twenty-two hours after p-MCA, the animal's neurological score was assessed (from 0-no clinical signs to 3-hemiplegia, circling and catatonia) and radio-labeled NST200 (80 μCi/animal) was intravenously injected for successive 2 h before sacrificing the animals. 10 μm frozen sections were prepared, air-dried and exposed to a tritium sensitive film (Hyperfilm-3h, RPN535B Amersharn-Pharmacia, Eu). The film was exposed for a duration of 7 weeks, developed (GBX Developer & Fixer, Kodak, USA) and analyzed by densitometry measurement. Measurement of ^3H-DDC densities in optical density/mm^2, in the ischemic core vs. the contralateral hemisphere signal was assessed by TINA software. Signals were translated according to a Microscale autoradiography standards (RPN510 Amersham-Pharmacia, Eu) and expressed in nCi/mg units.

[7] = tested on: Jurkat cells undergoing apoptosis induced by CD95; assay: Binding of tritium-labeled compounds to cultured Jurkat cells undergoing apoptosis induced by CD95; format: cell-based, human
Protocol: Cultured Jurkat cells (human adult T cell leukemia cells) were grown in suspension in RPMI medium (Beit-Haemek, Israel), supplemented with 10% fetal calf serum (FCS), 2 mM of L-glutamide, 1 mM of sodium pyruvate, 1 mM HEPES and antibiotics (100 units/ml penicilin; 100 μg/ml streptomycin and 12.5 units/ml of nystatin). Prior to induction of apoptosis, medium was replaced with HBS buffer (10 mM HEPES; 140 mM NaCl, 1 mM CaCl). Apoptosis was then triggered by treatment with CD95 (0.1 ug/10^7 cells/ml). As a result, a marked percentage of the cells became apoptotic. Non-treated cells served as control. Both control cells and apoptotic cells were then incubated for 40 minutes at room temperature followed by 30 minutes on ice with (2 μCi/10^7 cells/0.5 ml) tritium-labeled NST 200 and NST 205.
After washing the cells twice, 1 ml of SOLVABLE™ reagent (GNE9100, Packard Biosciences) was added to the pellet. Following one hour of incubation at 60° C., the extracts were transferred into glass scintillation vials and 10 ml of scintillation liquid (Ultima gold 6013329, Packard Biosciences) was added to each vial. The radioactivity was counted after 1 hour of cooling to room temperature and dark adaptation. The radioactive values were calculated and presented in percents of total added radiolabeled NST 200 and NST 205

[8] = tested on: Murine colon carcinoma cells (CT-26) tumors; assay: Uptake into colon carcinoma tumors: effect of chemotherapy (scintillation counting); format: in vivo, Balb/C mice
Protocol: Murine colon carcinoma cells (CT-26) (ATCC CRL-2638) were maintained in RPMI (Gibco, UK), 2 mM of L-glutamine; 100 units/ml of penicillin; 100 μg/ml of streptomycine; 12.5 units/ml nystatin; and 10% heated inactivation FCS. Studies were carried out in adult male Balb/C mice 8-10 weeks old (weighting 20-25gr).
Cells were trypsinized, washed twice with HBS (140 mM NaCl; […], PH 7.4) and than centrifuged (5 min, 1000 rpm, 4° C.) and concentrated into 2×10^6 cells/ml in a mixture of (2%) methyl cellulose and saline (1:3). A volume of 0.2 ml of the above solution (containing 4×10^5 cells/dose) was injected subcutaneously into the mice abdomen in both sides while mice were anaesthetized. Anaesthetic stock solution was prepared from 0.85 ml Ketamine (100 mg/ml)+0.15 ml Xilazine (2%) diluted 1:10. 0.1 ml of diluted solution was injected (i.p.) per 10 gr body weight.
Mice were examined daily for palpable tumor formation. 7-10 days after tumor injection small tumors were visible.
Uptake of ^3H-NST200 into tumors was measured following treatment of colon carcinoma tumors with i.v. injection of two doses of doxorubicin (20 mg/kg, 72 hours apart). 48 hours after the second dose, the mice were intravenously injected with ^3H-NST200 (10 μCi/animal). Four hours later, tumors were collected, weighed and the tissue was processed: tumor lysis was performed using SOLVABLE™ reagent (GNE9100, Packard Bioscience) in a ratio of one ml reagent per 150 mg of tumor tissue at 60° C. in 20 ml scintillation glass vials. Following 2-4 hours, one ml from each tissue extract was transferred to a glass scintillation vial. To reduce color quenching problems, samples were treated with 0.4 ml of 30% H2O2 in the presence of 0.066M EDTA. […] The vials were incubated for 1 hr at RT, and than analyzed in a β-counter (TRI-CARB 2100TR, liquid scintillation analyzer, Packard Bioscience). All samples were measured in triplicates Values of percents of injected dose (% ID/g tissue) were calculated for each sample.

[9] = tested on: kidney regions of apoptotic/necrotic cell death; assay: Autoradiography of rat renal ischemia-reperfusion; format: in vivo, rats
[10] = tested on: injured regions within the outer medulla of the kidney; assay: Autoradiography in a rat model of radiocontrast-induced acute distal tubular necrosis; format: in vivo, rats; conditions: 24 h after insult, 1 h after i.v. injection, FIG. 11
Protocol: Nephropathy with selective medullary hypoxic tubular damage was induced by the combined administration of indomethacin (Sigma Chemical Co.), 10 mg/kg, i.v., N^ωnitro-L-arginine methyl ester (L-NAME, Sigma Chemical Co.), 10 mg/kg, i.v., and radiocontrast agent sodium-iothalamate 80% (Angio-Conray, Mallinckrodt Inc), 6 mL/kg, i.a. Additional rats injected with vehicles served as control. Twenty-four hours after insult, animals, both control and experimental were intravenously injected with 100 μCi of ^3H-NST205 and one hour later kidneys were excised and frozen in liquid nitrogen.

SMILES: CCCCNS(=O)(=O)c1cccc2c(N(C)C)cccc12 [BDA, n-butyl-dansylamide]
- selectivity of binding to apoptotic vs non-apoptotic cells [1]: did not manifest this selectivity

SMILES: CCCCC(C)(C(=O)O)C(=O)O [NST200]
- increase in uptake in tumors after 2 doses of doxorubicin (colon carcinoma tumors [2]; two days after second dose, 4 h after i.v. injection, vs control non-treated tumors): 18.5 fold
- radio-ligand accumulation in brain vs control non-immunized mouse ([3]; coronal brain sections, 1 h after i.v. injection): excess of radio-ligand accumulation in the whole brain
- accumulation at the spinal cord level vs control untreated animal ([3]; longitudinal spinal cord section): impressive accumulation
- uptake in tumors upon induction of cell death via chemotherapy (autoradiography) (colon carcinoma tumors [4]; 48 h after two doses of doxorubicin, FIGS. 5B and C): dramatic increase
- uptake in non-treated tumors (autoradiography) (colon carcinoma tumors [4]; control non-treated mice, FIG. 5A): no uptake
- ratio of uptake in the tumor vs. all organs [5]: > 1
- targeting of injury within regions of apoptotic/necrotic cell death (autoradiography) ([6]; 22 h after p-MCA, i.v., 2 h, FIG. 9): specificity of targeting the injury
- uptake in damaged brain hemisphere compared to the contralateral non-damaged hemisphere ([6]; tritium-labeled compound): markedly higher levels of uptake
- uptake in apoptotic cells compared to the non-apoptotic cells ([7]; tritium-labeled compound, CD95-induced apoptosis, FIG. 2A): over 8 fold
- mean value of uptake in the treated group ([8]; doxorubicin treated tumors, 48 hr after second dose, 4 h after i.v. injection): 1.28 % ID/gr
- mean uptake of treated group relative to mean value of the control group ([8]; doxorubicin treated vs non treated tumors): 12.1 fold
- increase in uptake in some treated tumors as compared with the control group ([8]; some chemotherapy-treated tumors): 40-50 fold

SMILES: CCCCC(CCCF)(C(=O)O)C(=O)O [NST205, 2-butyl-2(3-fluoropropyl)-malonic acid]
- targeting of injury within regions of apoptotic/necrotic cell death in ischemic kidney (autoradiography) ([9]; 45 minutes ischemia, 24 hours reperfusion, 1 h after i.v. injection, FIG. 10): specificity of targeting the injury
- uptake into contralateral kidney ([9]; contralateral untreated kidney of same animal): no ^3H-NST205 uptake into contralateral kidney
- homing in kidney (autoradiography) [10]: primarily restricted to injured regions within the outer medulla
- effect of adding caspase inhibitor ZVAD on the higher uptake in apoptotic cells ([7]; CD95, plus ZVAD, FIG. 2B): completely reversed
- uptake in apoptotic cells in comparison to the non apoptotic cells ([7]; tritium-labeled compound, CD95-induced apoptosis, FIG. 2B): higher uptake

SMILES: COc1cccc2c1C(=O)c1c(O)c3c(c(O)c1C2=O)C[C@@](O)(C(=O)CO)C[C@@H]3O[C@H]1C[C@H](N)[C@H](O)[C@H](C)O1 [doxorubicin, reference compound]
- increase in tumor volume as compared to control non-treated tumors (colon carcinoma tumors [2]; 2 doses of 20 mg/Kg i.v., 5 days, controls collected 5 days earlier, non-significant): 50%

Reference: patent US7947253B2, “Perturbed membrane-binding compounds and methods of using the same” (Aposense Ltd., priority 2004, dated 2011)
